# In ChEMBL document CHEMBL3885861, “Open TG-GATES”:
# Species: Rattus norvegicus
# Test: Open TG-GATES - Regimen: Single
# Format: toxicity, organism-based, Sprague-Dawley
# Design: regimen Single, gender Male, age 6 weeks
# Conditions: in vivo, po, route gavage; for Bas / Eos / Fbg / Hb / Ht / Lym / MCHC / MCV / Mono / Neu / PT / Plat / RBC / Ret / WBC / APTT: tissue Blood; for KIDNEY_L / KIDNEY_R / KIDNEY_TOTAL: tissue Kidney; for LIVER: tissue Liver
# [1] = 300 mg/kg, 3 h, dose level Middle
# [2] = 300 mg/kg, 3 h, tissue Plasma, dose level Middle
# [3] = 300 mg/kg, 6 h, dose level Middle
# [4] = 300 mg/kg, 6 h, tissue Plasma, dose level Middle
# [5] = 300 mg/kg, 9 h, dose level Middle
# [6] = 300 mg/kg, 9 h, tissue Plasma, dose level Middle
# [7] = 300 mg/kg, 24 h, dose level Middle
# [8] = 300 mg/kg, 24 h, tissue Plasma, dose level Middle
structure (smiles),measurement,setting,value
CN(C)C(=N)N=C(N)N [METFORMIN],Bas,[1],0%
same,Eos,[1],1%
same,Fbg,[1],256.8 mg/dL
same,Hb,[1],12.8 g/dL
same,Ht,[1],39.1%
same,Lym,[1],72.6%
same,MCHC,[1],32.9%
same,MCV,[1],64.2 fL
same,Mono,[1],2.8%
same,Neu,[1],23.2%
same,PT,[1],12.3 s
same,Plat,[1],125.2 x10_4/uL
same,RBC,[1],612.2 x10_4/ul
same,Ret,[1],10.1%
same,WBC,[1],96 x10_2/uL
same,KIDNEY_L,[1],0.9 g
same,KIDNEY_R,[1],0.9 g
same,KIDNEY_TOTAL,[1],1.7 g
same,LIVER,[1],8.1 g
same,ALP,[2],1196.4 IU/L
same,ALT,[2],58 IU/L
same,AST,[2],77.2 IU/L
same,BUN,[2],8.8 mg/dL
same,CRE,[2],0.2 mg/dL
same,Ca,[2],11.1 mg/dL
same,Cl,[2],106.2 meq/L
same,DBIL,[2],0.01 mg/dL
same,GLC,[2],156.2 mg/dL
same,IP,[2],9 mg/dL
same,K,[2],3.8 meq/L
same,LDH,[2],65 IU/L
same,Na,[2],140.6 meq/L
same,PL,[2],132.2 mg/dL
same,RALB,[2],2.5 g/dL
same,TBIL,[2],0.038 mg/dL
same,TG,[2],46.2 mg/dL
same,TP,[2],5.2 g/dL
same,gamma-GTP,[2],1.2 IU/L
same,TERMINAL_BW,[3],200 g
same,APTT,[3],16.3 s
same,Bas,[3],0.2%
same,Eos,[3],1%
same,Fbg,[3],254 mg/dL
same,Hb,[3],12.8 g/dL
same,Ht,[3],38.1%
same,Lym,[3],75.6%
same,MCHC,[3],33.6%
same,MCV,[3],63 fL
same,Mono,[3],3%
same,Neu,[3],20.2%
same,PT,[3],12.5 s
same,Plat,[3],113.5 x10_4/uL
same,RBC,[3],604.4 x10_4/ul
same,Ret,[3],9.6%
same,WBC,[3],95.4 x10_2/uL
same,KIDNEY_L,[3],0.9 g
same,KIDNEY_R,[3],0.9 g
same,KIDNEY_TOTAL,[3],1.7 g
same,LIVER,[3],7.3 g
same,ALP,[4],1116.6 IU/L
same,ALT,[4],85 IU/L
same,AST,[4],85.6 IU/L
same,BUN,[4],8.4 mg/dL
same,CRE,[4],0.2 mg/dL
same,Ca,[4],11 mg/dL
same,Cl,[4],105.6 meq/L
same,DBIL,[4],0.004 mg/dL
same,GLC,[4],153.4 mg/dL
same,IP,[4],10.3 mg/dL
same,K,[4],4.1 meq/L
same,LDH,[4],51.8 IU/L
same,Na,[4],140 meq/L
same,PL,[4],126 mg/dL
same,RALB,[4],2.5 g/dL
same,TBIL,[4],0.04 mg/dL
same,TG,[4],28.2 mg/dL
same,TP,[4],5.1 g/dL
same,gamma-GTP,[4],1 IU/L
same,TERMINAL_BW,[5],199.7 g
same,APTT,[5],15.9 s
same,Bas,[5],0%
same,Eos,[5],1%
same,Fbg,[5],250.2 mg/dL
same,Hb,[5],12.8 g/dL
same,Ht,[5],38.2%
same,Lym,[5],75%
same,MCHC,[5],33.6%
same,MCV,[5],64.1 fL
same,Mono,[5],2.6%
same,Neu,[5],20.4%
same,PT,[5],12.4 s
same,Plat,[5],111.7 x10_4/uL
same,RBC,[5],595.8 x10_4/ul
same,Ret,[5],10.1%
same,WBC,[5],82.7 x10_2/uL
same,KIDNEY_L,[5],0.8 g
same,KIDNEY_R,[5],0.9 g
same,KIDNEY_TOTAL,[5],1.7 g
same,LIVER,[5],6.8 g
same,ALP,[6],1220.2 IU/L
same,ALT,[6],61.2 IU/L
same,AST,[6],75.6 IU/L
same,BUN,[6],9 mg/dL
same,CRE,[6],0.1 mg/dL
same,Ca,[6],10.7 mg/dL
same,Cl,[6],106.6 meq/L
same,DBIL,[6],0.008 mg/dL
same,GLC,[6],162.6 mg/dL
same,IP,[6],10.2 mg/dL
same,K,[6],4 meq/L
same,LDH,[6],52.2 IU/L
same,Na,[6],140.8 meq/L
same,PL,[6],126.6 mg/dL
same,RALB,[6],2.5 g/dL
same,TBIL,[6],0.042 mg/dL
same,TG,[6],26.2 mg/dL
same,TP,[6],5 g/dL
same,gamma-GTP,[6],1.4 IU/L
same,TERMINAL_BW,[7],208.8 g
same,APTT,[7],16.1 s
same,Bas,[7],0%
same,Eos,[7],0.8%
same,Fbg,[7],235.6 mg/dL
same,Hb,[7],13.2 g/dL
same,Ht,[7],39.1%
same,Lym,[7],75.2%
same,MCHC,[7],33.8%
same,MCV,[7],63.3 fL
same,Mono,[7],3%
same,Neu,[7],20.6%
same,PT,[7],12.5 s
same,Plat,[7],112.7 x10_4/uL
same,RBC,[7],617.8 x10_4/ul
same,Ret,[7],9.3%
same,WBC,[7],73.1 x10_2/uL
same,KIDNEY_L,[7],0.9 g
same,KIDNEY_R,[7],0.9 g
same,KIDNEY_TOTAL,[7],1.8 g
same,LIVER,[7],9.7 g
same,ALP,[8],1591.2 IU/L
same,ALT,[8],52.4 IU/L
same,AST,[8],77.8 IU/L
same,BUN,[8],15.2 mg/dL
same,CRE,[8],0.2 mg/dL
same,Ca,[8],11.2 mg/dL
same,Cl,[8],104.6 meq/L
same,DBIL,[8],0.014 mg/dL
same,GLC,[8],178 mg/dL
same,IP,[8],8.9 mg/dL
same,K,[8],4.1 meq/L
same,LDH,[8],80 IU/L
same,Na,[8],141.4 meq/L
same,PL,[8],146.6 mg/dL
same,RALB,[8],2.5 g/dL
same,TBIL,[8],0.03 mg/dL
same,TC,[8],83.4 mg/dL
same,TG,[8],87 mg/dL
same,TP,[8],5.4 g/dL
same,gamma-GTP,[8],1 IU/L
same,TERMINAL_BW,"1000 mg/kg, 3 h, dose level High",201 g
